The values below are quoted from earlier work in patent US20100215737A1, “COMBINATION PHARMACEUTICAL COMPOSITIONS” (priority 2007, published 2010).

Molecules are shown by their SMILES.

For data set [1], the system named is subventricular zone and dentate gyrus cells. Particulars: young adult rats.
Data set [2] deals with endothelial nitric oxide synthase (eNOS). The conditions noted are these: mouse, in vivo.
For data set [3] the following is noted: marketed formulations.
Data set [4] concerns the target T1, PgP (Homo sapiens, UniProt P08183).
T1 construct: PgP is found in the luminal plasma membrane of brain capillary endothelial cells (BCEC); host or cells: blood brain barrier / primary cultured BCEC

The subject of a further data set is transient focal ischemia. Particulars: in vivo.
For data set [5], the system named is middle cerebral artery occlusion (MCO). Particulars: 0.32 to 1.0 mg/kg iv immediately after occlusion.
Data set [6] concerns mdr-1a knockout and wild type mice. The conditions noted are these: mdr-1a knockout vs wild type mice, oral.
A further data set relates to APP holoprotein and mRNA. Particulars: 50 microM.
The conditions of data set [7]: relative to small intestine.
Data set [8] has as its system transient global ischemia. Particulars: 1 mg/kg iv immediately after reperfusion.
For the next data set, the system named is CYP. Particulars: concentration of up to 1 μM.
In data set [9] the test system is ischemic damage in the rat cortex. Particulars: in vivo.
For data set [10] the following is noted: human, in vivo.
The test system of a further data set is global ischemic insult. The conditions noted are these: mice.
Data set [11] deals with middle cerebral artery occlusion. The conditions noted are these: single iv bolus 0.1 mg/kg immediately or 3 h after occlusion.
The next data set deals with peripheral nerve damage. Particulars: after peripheral nerve damage.
Data set [12] relates to permanent and transient focal ischemia. The conditions noted are these: >0.1 mg/kg iv immediately after onset of ischemia.
Data set [13] deals with T1, PgP. The conditions noted are these: dose-depended effect.

T1 sequence (P08183 whole entry): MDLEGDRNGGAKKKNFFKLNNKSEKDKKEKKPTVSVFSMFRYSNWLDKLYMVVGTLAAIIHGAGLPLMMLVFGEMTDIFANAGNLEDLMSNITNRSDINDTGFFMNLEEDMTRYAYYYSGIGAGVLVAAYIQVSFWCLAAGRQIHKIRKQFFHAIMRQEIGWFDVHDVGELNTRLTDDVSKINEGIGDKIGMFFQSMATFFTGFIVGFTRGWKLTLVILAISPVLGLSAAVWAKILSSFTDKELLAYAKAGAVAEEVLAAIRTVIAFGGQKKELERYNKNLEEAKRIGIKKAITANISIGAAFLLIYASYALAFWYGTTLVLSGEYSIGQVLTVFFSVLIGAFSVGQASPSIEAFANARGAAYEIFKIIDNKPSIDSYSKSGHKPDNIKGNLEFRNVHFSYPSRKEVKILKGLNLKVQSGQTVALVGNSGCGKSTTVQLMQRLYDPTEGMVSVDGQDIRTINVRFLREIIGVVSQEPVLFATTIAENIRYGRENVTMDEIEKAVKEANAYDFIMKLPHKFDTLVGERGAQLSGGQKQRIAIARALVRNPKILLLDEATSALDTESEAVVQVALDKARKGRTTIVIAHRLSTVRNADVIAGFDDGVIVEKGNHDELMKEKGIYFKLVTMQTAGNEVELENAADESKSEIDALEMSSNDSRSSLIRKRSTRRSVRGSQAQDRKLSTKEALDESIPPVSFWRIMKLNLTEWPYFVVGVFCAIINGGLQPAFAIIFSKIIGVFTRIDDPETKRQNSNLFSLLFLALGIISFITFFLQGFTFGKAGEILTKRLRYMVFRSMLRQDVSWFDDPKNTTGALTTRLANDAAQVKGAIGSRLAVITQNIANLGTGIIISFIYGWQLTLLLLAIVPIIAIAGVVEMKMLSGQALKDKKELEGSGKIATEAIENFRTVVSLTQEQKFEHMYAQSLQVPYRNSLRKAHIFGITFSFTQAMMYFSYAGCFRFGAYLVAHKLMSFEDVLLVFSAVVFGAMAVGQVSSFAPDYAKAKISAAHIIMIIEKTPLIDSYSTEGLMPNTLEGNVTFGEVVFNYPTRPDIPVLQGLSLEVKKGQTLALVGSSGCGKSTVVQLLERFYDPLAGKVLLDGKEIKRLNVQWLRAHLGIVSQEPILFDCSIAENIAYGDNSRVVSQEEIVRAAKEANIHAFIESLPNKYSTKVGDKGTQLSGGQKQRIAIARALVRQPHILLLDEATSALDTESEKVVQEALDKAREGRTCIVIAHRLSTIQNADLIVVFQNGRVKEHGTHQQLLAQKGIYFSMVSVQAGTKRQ

`NCCN(CCN)/[N+]([O-])=N/O` [DETA/NONOate, (Z)-1-[N-(2-aminoethyl)-N-(2-ammonioethyl)amino]diazen-1-ium-1,2-diolate]: in [1], the “cell proliferation and migration in the subventricular zone and the dentate gyrus” value is “significantly increases cell proliferation and migration”.

Consider `CC[C@H](C)C(=O)O[C@H]1CCC=C2C=C[C@H](C)[C@H](CC[C@@H]3C[C@@H](O)CC(=O)O3)[C@H]21` [Mevastatin], for which, in data set [2], the “cerebral blood flow (CBF)” value was “augmented absolute CBF”; the eNOS expression entry was “increase in eNOS mRNA and protein levels”.

Take `COCCOC(=O)C1=C(C)NC(C)=C(C(=O)OC(C)C)C1c1cccc([N+](=O)[O-])c1` (stereo not drawn) [Nimodipine]: the solubility in water entry is on record as “practically insoluble in water”. For the same compound, the “bioavailability after oral administration, average” value in [3] is “approximately 25%”.

Consider `C=CC[C@@H]1/C=C(\C)C[C@H](C)C[C@H](OC)[C@H]2O[C@@](O)(C(=O)C(=O)N3CCCC[C@H]3C(=O)O[C@H](/C(C)=C/[C@@H]3CC[C@@H](O)[C@H](OC)C3)[C@H](C)[C@@H](O)CC1=O)[C@H](C)C[C@@H]2OC` [Tacrolimus], for which the “affinity for PgP” value on PgP [4] is approximately 0.1 µM. For the same compound, in the data set with transient focal ischemia, the peptidyl-prolyl isomerase activity result is recorded as “blocked the increase in peptidyl-prolyl isomerase activity” and the “reduction of infarct size” value was 53%. The infarction area result in [5] was “dose-dependently reduced the infarction area”. In [6], the blood concentrations result is on record as “significantly higher”; the “concentration in brain tissue, fold higher” value was 10 fold; the “total clearance, reduction” value is on record as 66%. In addition, the “increases in APP holoprotein and mRNA caused by PGE2 treatment” value in the data set on APP holoprotein and mRNA was “completely inhibited”. Besides, the “ileum and colonic absorption efficiency” value in data set [7] was “half that observed for the small intestine”. Further, the neuroprotective effect result in [8] is listed as “long-lasting neuroprotective effects”. The “effect on CYP activities” value with CYP is listed as “little detectable effect”. Moreover, the “reduction of ischemic damage in the rat cortex” value in data set [9] was “up to 70%”. In data set [10], the incidence of diabetes is on record as 20 % of all patients. For the same compound, the “reduction of hippocampal damage” value in the data set with global ischemic insult is recorded as “more than 80%”. Besides, in [11], the cortical brain damage result is on record as “reducing cortical brain damage”; the “reductions of cerebral metabolic rate of oxygen and oxygen extraction function” value is “significantly attenuated”. In addition, the “increase of axonal growth” value with peripheral nerve damage is listed as 20%. Further, the “neuroprotective effect, drug alone” value in the data set on MCO (1 mg/kg iv alone, 1, 2 or 3 h after occlusion) is on record as “neuroprotective effects when administered alone up to 1 h following occlusion”. Besides, the “brain damage, combination with rt-PA” value in the data set on MCO (tacrolimus 1 mg/kg plus same dose of rt-PA iv) is recorded as “significant reduction in brain damage was observed at up to 2 h following occlusion”. For the same compound, in data set [12], the ischemic brain damage result is recorded as “significant reduction in ischemic brain damage”.

Consider `O=C(O)[C@H]1O[C@@H](Oc2cc3oc(-c4ccccc4)cc(=O)c3c(O)c2O)[C@H](O)[C@@H](O)[C@@H]1O` [baicalin], for which, on PgP [13], the “transport of nimodipine across the BBB” value is given as “increased the transport of nimodipine across the BBB”.

For the compound `COc1ccc2cc3[n+](cc2c1OC)CCc1cc2c(cc1-3)OCO2` [berberine], the “transport of nimodipine across the BBB” value on PgP [13] was “increased the transport of nimodipine across the BBB”.
